Patent publication US20050227978A1, “Fibrosis inhibitor” (Sumitomo Pharmaceuticals Co., Ltd., priority 2002, published 2005)

Legend:
TGF-β = test: Effects on the extracellular matrix (proteoglycan) production by TGF-β in NRK-49F fibroblasts; format: cell-based; conditions: Rattus norvegicus, NRK-49F cells, 3 ng/ml TGF-β, [35S]-proteoglycan radioactivity, 24 hours, read-out: TGF-β inhibitory rate (%); for inhibition at 3 µM: test compound 3 μM; for inhibition at 10 µM: test compound 10 μM
Description: Effects on the Extracellular Matrix Production by TGF-β
The effect of the compounds of Examples on the production of proteoglycan when TGF-β was added to fibroblast was evaluated.
NRK-49F cells (rat fibroblast) were cultured in Dulbecco's Modified Eagle Medium (DMEM: manufactured by GIBCO) containing 10% bovine serum, and used in this experiment. The cells were put into a 96-well plate in an amount of 2.5×10^4 cells/100 μl/well. On the next day, the medium in the plate was exchanged to the DMEM medium containing 3 ng/ml of TGF-β (manufactured by Nacalai Tesque, Inc.), 0.5 μCi/well of [^35S]-Na2SO4, and a test compound. Twenty-four hours thereafter, the supernatant was collected, and subjected to SDS-polyacrylamide gel electrophoresis (SDS-PAGE) in a conventional manner. The gel after electrophoresis was dried with a gel drier, and exposed to an imaging plate, which was analyzed with BSA2000 (manufactured by Fuji Photo Film). The radioactivity of proteoglycan to be electrophoresed was measured, and the TGF-β inhibitory rate was calculated by the following equation. TGF-β Inhibitory rate (%)=(A−B)×100/(A−C) • A: Radioactivity in the presence of TGF-β without a test compound • B: Radioactivity in the presence of TGF-β and a test compound • C: Radioactivity in the absence of TGF-β and a test compound

[1] = tested on: rat Thy-1 nephritis model; test: Evaluation using rat Thy-1 nephritis model (kidney fibrosis); format: in vivo; conditions: 7 days
Description: The anti-fibrosis activity was evaluated on the compounds of Examples 9, 14, 110, 120 and 136 by using a rat Thy-1 nephritis model, which is an animal model for kidney fibrosis (cf., “Kidney and Dialysis”, vol. 31, p. 343-347 (1991)). Thy-1 is one of the surface antigens of thymocyte.
Male Wister rats were purchased from Charles River Japan, Inc. at an age of 3-weeks old. After pre-feeding, the animals were used in this experiment when their body weights became about 100 g. The animals were kept in a room being controlled at a temperature of 24±2° C. under a humidity of 55±10%, with an illumination cycle of light on (8:00 to 20:00). The animals were given solid diet pellets (CRF-1, Oriental Yeast Co. Ltd.) and sterilized tap water ad libitum.
Anti-Thy-1 monoclonal antibody (OX-7, Biosource International Inc.) was administered to the rats at a dose of 50 μg/100 g of body weight at the tail vein. Then, the animals were grouped into the vehicle-treated group (n=8) and the test compound-treated group (n=8) with respect to the body weight. From the day of administration of anti-Thy-1 monoclonal antibody, a test compound, which was suspended in a 0.5% carboxymethylcellulose (vehicle), […] To the vehicle-treated group, a vehicle was administered likewise.
After the administration for 7 days, the right kidney of the rats was taken out, and the content of hydroxyproline therein, which was an index for organ fibrosis, was measured according to the method of J. F. Woessner, et al. (Arch. Biochem. Biophys. Vol. 93 p440 (1961)). That is, the kidney was homogenized, and 500 μL of the suspension was dried, and thereto was added a 4N aqueous sodium hydroxide solution (225 μL). The mixture was heated on a heat block at 100° C. for 15 minutes to hydrolyze proteins, and the mixture was neutralized with a 1.4 M aqueous citric acid solution (275 μL). The mixture was centrifuged at 3000 rpm for 10 minutes at room temperature, and the supernatant was collected as a kidney extract. To the extract were added Chloramine T solution and an Ehrlich solution (which was prepared by adding n-propanol (31 ml) to p-dimethylaminobenzaldehyde (7.5 g), and further slowly adding thereto a 60% perchloric acid (13 mL), and followed by adjusting the volume to 50 ml by distilled water), and the mixture was reacted at 65° C. for 15 minutes. The OD 550 (absorbance at 550 nm) was measured, and the concentration of hydroxyproline was calculated from the analytical curve of hydroxyproline. The content of hydroxyproline thus obtained was adjusted with respect to the protein amount in the kidney extract.
Each value was expressed in average value±standard deviation of 8 animals in each group.

Compound | inhibition at 3 µM (TGF-β) | inhibition at 10 µM (TGF-β) | further results
Cc1ccc(C(=O)c2cccn2Cc2cnc3ccccc3c2)cc1 [Example 2] | 33% | 61% | 
O=C(c1ccc(OCCN2CCOCC2)cc1)c1cccn1Cc1cnc2ccccc2c1 [Example 97] | 58% | 75% | 
Cc1ccc(Cn2cccc2Cc2cnc3ccccc3c2)cc1 [Example 7, 1-(4-methylbenzyl)-2-(3-quinolylmethyl)-1H-pyrrole] | 44% | 78% | 
Cc1ccc(C(=O)c2cccn2Cc2cnc3c(C#N)cccc3c2)cc1 [Example 38] | 51% | 40% | 
Cc1ccc(C(=O)c2cccn2Cc2cnc3cccc(C(N)=O)c3c2)cc1 [Example 31] | 34% | 38% | 
C=CCOc1ccc(C(=O)c2cccn2Cc2cnc3ccccc3c2)cc1 [Example 10] | 63% | 86% | 
Cc1ccc(C(=O)c2cccn2Cc2cnc3cc(C#N)ccc3n2)cc1 [Example 67] | 55% | 75% | 
Cc1ccc(C(=O)c2cccn2Cc2cnc3ccccc3n2)cc1 [Example 64] | 43% | 75% | 
Cc1ccc(C(=O)c2cccn2Cc2cnc3ncccc3n2)cc1 [Example 73] | 70% | 85% | 
COc1ccc(C(=O)c2cccn2Cc2cnc3ccccc3n2)cc1 [Example 91] | 66% | 73% | 
Cc1ccc(C(=O)c2cccn2Cc2cnc3nccnc3c2)cc1 [Example 105] | 14% | 48% | 
Cc1ccc(C(=O)c2cccn2Cc2cnc3ccccc3c2)c(O)c1 [Example 85] | 29% | 75% | 
Cc1ccc(C(=O)c2cccn2Cc2cnc3cccc(C(=O)O)c3c2)cc1 [Example 43] | 31% | 66% | 
Cc1ccc(C(=O)c2cc(C=O)cn2C/C=C/c2ccc(Cl)cc2C(=O)O)cc1 [Example 112] | 23% | 73% | 
Cc1ccc(C(=O)c2cccn2C/C=C/c2ccc(Cl)cc2C(=O)NS(C)(=O)=O)cc1 [Example 115] | 46% | 56% | 
Cc1ccc(S(=O)(=O)n2cccc2C(O)c2cnc3ccccc3c2)cc1 (centres unmarked) [Example 6, (1-p-toluenesulfonyl-1H-pyrrol-2-yl)(3-quinolyl)methanol] | 66% | 88% | 
COC(=O)c1cc(Cl)ccc1/C=C/Cn1cc(C)cc1C(=O)c1ccc(O)cc1 [Example 111] | 90% | 118% | 
Cc1ccc(C(=O)c2cc(C)cn2Cc2cnc3ccccc3c2)cc1 [Example 107] | 90% | 95% | 

Compound | inhibition at 3 µM (TGF-β) | inhibition at 10 µM (TGF-β) | further results
Cc1ccc(C(=O)c2cccn2C/C=C/c2ccccc2C(=O)O)cc1 [Example 19] | 51% | 72% | 
Cc1ccc(C(=O)c2cccn2C/C=C/c2ccc(Cl)cc2C(=O)O)cc1 [Example 9] | 88% | 91% | Hydroxyproline content ([1]; 15 mg/kg oral once a day, right kidney, Table 2: normal rat 6.7 ± 1.6, vehicle 8.7 ± 2.0, mean ± SD, n=8): 7.2 ± 2.1 μg/mg protein
Cc1ccc(C(=O)c2cccn2Cc2cnc3ccccc3c2)cc1OCC(O)CO (centres unmarked) [Example 83] | 42% | 47% | 
Cc1ccc(C(=O)c2cccn2Cc2ccnc3ccccc23)cc1 [Example 3] | 25% | 38% | 
Cc1ccc(C(=O)c2cccn2Cc2cnc3cc(Cl)ccc3c2)cc1 [Example 33] | 74% | 91% | 
Cc1ccc(C(=O)c2cccn2Cc2cnc3c(C#N)cccc3n2)cc1 [Example 66] | 88% | 94% | 
Cc1ccc(Cc2cccn2Cc2ccc3ccccc3n2)cc1 [Example 5] | 6% | 51% | 
Cc1ccc(C(=O)c2cccn2Cc2cnc3c(/C=C/C(=O)N(C)C)cccc3c2)cc1 [Example 61] | 15% | 86% | 
Cc1ccc(C(=O)c2c(C)ccn2Cc2cnc3ccccc3c2)cc1 [Example 108] | 42% | 56% | 
O=C(c1ccc(O)cc1)c1cccn1Cc1cnc2ccccc2c1 [Example 14] | 40% | 56% | Hydroxyproline content ([1]; 150 mg/kg oral once a day, right kidney, Table 2: normal rat 6.7 ± 1.6, vehicle 8.7 ± 2.0, P < 0.05 vs vehicle): 6.3 ± 1.3 μg/mg protein
CN(C)C(=O)c1ccc(C(=O)c2cccn2Cc2cnc3ccccc3c2)cc1 [Example 76] | 56% | 58% | 
CNC(=O)c1cc(Cl)ccc1/C=C/Cn1cccc1C(=O)c1ccc(C)cc1 [Example 117] | 71% | 83% | 
COc1ccc(C(=O)c2cc(C)cn2C/C=C/c2ccc(Cl)cc2C(=O)O)cc1 [Example 110] |  |  | Hydroxyproline content ([1]; 1.5 mg/kg oral, kidney, Table 3: normal rat 8.2 ± 0.8, vehicle 11.8 ± 0.6, P < 0.01 vs vehicle): 10.1 ± 0.8 μg/mg protein; Hydroxyproline content ([1]; 5 mg/kg oral, kidney, Table 3: normal rat 8.2 ± 0.8, vehicle 11.8 ± 0.6, P < 0.01 vs vehicle): 9.5 ± 0.8 μg/mg protein; Hydroxyproline content ([1]; 15 mg/kg oral, kidney, Table 3: normal rat 8.2 ± 0.8, vehicle 11.8 ± 0.6, P < 0.01 vs vehicle): 9.7 ± 0.7 μg/mg protein; Hydroxyproline content ([1]; 50 mg/kg oral, kidney, Table 3: normal rat 8.2 ± 0.8, vehicle 11.8 ± 0.6, P < 0.01 vs vehicle): 9.5 ± 0.6 μg/mg protein
Cc1ccc(Cc2cccn2Cc2cnc3ccccc3c2Cl)cc1 [Example 25] | 6% | 74% | 
Cc1ccc(C(=O)c2cccn2Cc2cnc3cccnc3n2)cc1 [Example 8] | 16% | 46% | 
COC(=O)c1cc(Cl)ccc1/C=C/Cn1cccc1C(=O)c1ccc(O)cc1 [Example 103] | 55% | 90% | 
Cc1ccc(C(O)c2cccn2Cc2cnc3ccccc3c2)cc1 (centres unmarked) [Example 20, [1-(3-quinolylmethyl)-1H-pyrrol-2-yl](4-methylphenyl)methanol] | 61% | 90% | 
